Source: paper PMC10509173, “Deep learning driven de novo drug design based on gastric proton pump structures” (Communications Biology, 2023)
Several values for one entry are separate records, joined by “and”; a condition that tells them apart may be missing. Identical values can stand only once.

Target: H+,K+-ATPase (Sus scrofa, UniProt P19156)
Experiment: Dose-dependent inhibition of H+,K+-ATPase activity, membrane fractions
Conditions: for H+,K+-ATPase activity, raw data of dose-dependent inhibition: single replicate values
[1] = [PCAB] -3.30103 (log, unit not given)
[2] = [PCAB] -3.52288 (log, unit not given)
[3] = [PCAB] -4 (log, unit not given)
[4] = [PCAB] -4.30103 (log, unit not given)
[5] = [PCAB] -4.52288 (log, unit not given)
[6] = [PCAB] -5 (log, unit not given)
[7] = [PCAB] -5.52288 (log, unit not given)
[8] = [PCAB] -6 (log, unit not given)
[9] = [PCAB] -6.30103 (log, unit not given)
[10] = [PCAB] -7 (log, unit not given)
[11] = [PCAB] -8 (log, unit not given)
[12] = [PCAB] -11 (log, unit not given; possibly placeholder for no compound)

H+,K+-ATPase, sequence (P19156 2-1034 limits assumed): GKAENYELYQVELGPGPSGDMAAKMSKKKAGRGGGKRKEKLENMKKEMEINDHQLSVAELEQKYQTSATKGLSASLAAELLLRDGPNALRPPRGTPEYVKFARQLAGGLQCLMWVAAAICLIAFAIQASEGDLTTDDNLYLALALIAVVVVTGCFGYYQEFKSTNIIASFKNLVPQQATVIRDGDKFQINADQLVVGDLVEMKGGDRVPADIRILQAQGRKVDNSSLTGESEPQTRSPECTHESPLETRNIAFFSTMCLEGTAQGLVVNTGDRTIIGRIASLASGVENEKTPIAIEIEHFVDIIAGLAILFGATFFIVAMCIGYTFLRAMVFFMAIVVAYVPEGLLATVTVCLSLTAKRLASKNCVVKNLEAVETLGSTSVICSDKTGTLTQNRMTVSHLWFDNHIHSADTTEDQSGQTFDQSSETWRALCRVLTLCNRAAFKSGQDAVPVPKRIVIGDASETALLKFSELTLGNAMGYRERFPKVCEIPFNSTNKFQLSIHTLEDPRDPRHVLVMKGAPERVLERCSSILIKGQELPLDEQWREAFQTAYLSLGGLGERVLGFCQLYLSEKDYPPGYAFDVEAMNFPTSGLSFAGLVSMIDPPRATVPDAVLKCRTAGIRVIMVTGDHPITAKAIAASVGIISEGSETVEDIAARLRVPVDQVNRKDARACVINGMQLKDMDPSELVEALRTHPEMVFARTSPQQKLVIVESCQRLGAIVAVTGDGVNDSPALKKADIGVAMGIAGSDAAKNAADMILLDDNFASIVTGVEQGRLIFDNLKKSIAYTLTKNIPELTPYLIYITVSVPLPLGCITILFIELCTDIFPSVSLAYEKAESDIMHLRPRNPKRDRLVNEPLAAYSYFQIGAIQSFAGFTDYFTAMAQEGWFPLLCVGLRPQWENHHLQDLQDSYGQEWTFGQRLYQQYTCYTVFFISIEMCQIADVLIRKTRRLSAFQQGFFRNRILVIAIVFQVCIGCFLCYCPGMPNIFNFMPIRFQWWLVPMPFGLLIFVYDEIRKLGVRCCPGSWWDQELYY
H+,K+-ATPase, sequence (P18434 whole entry partner): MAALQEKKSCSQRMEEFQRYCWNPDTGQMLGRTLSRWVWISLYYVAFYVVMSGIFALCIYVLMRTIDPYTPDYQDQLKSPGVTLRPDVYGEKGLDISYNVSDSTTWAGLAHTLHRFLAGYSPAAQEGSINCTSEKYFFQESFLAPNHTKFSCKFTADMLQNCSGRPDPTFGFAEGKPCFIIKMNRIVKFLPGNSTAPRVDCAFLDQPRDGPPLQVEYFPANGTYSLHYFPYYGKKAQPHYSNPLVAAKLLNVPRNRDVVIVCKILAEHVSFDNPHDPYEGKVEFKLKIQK

| IC50 [µM] | SMILES | H+,K+-ATPase activity, raw data of dose-dependent inhibition [1] | H+,K+-ATPase activity, raw data of dose-dependent inhibition [2] | H+,K+-ATPase activity, raw data of dose-dependent inhibition [3] | H+,K+-ATPase activity, raw data of dose-dependent inhibition [4] | H+,K+-ATPase activity, raw data of dose-dependent inhibition [5] | H+,K+-ATPase activity, raw data of dose-dependent inhibition [6] | H+,K+-ATPase activity, raw data of dose-dependent inhibition [7] | H+,K+-ATPase activity, raw data of dose-dependent inhibition [8] | H+,K+-ATPase activity, raw data of dose-dependent inhibition [9] | H+,K+-ATPase activity, raw data of dose-dependent inhibition [10] | H+,K+-ATPase activity, raw data of dose-dependent inhibition [11] | H+,K+-ATPase activity, raw data of dose-dependent inhibition [12] |
| --- | --- | --- | --- | --- | --- | --- | --- | --- | --- | --- | --- | --- | --- |
| 3.52 ± 0.22 | CNCc1ccc(OCc2c(Cl)cccc2OCc2ccccc2)cc1 [DQ-19] | -0.65 and -0.09 and -0.18 (2×) and 0.39 and -0.03 | 1.38 and 2.32 and 2.04 and 1.91 and 2.46 and 2.13 | 10.36 and 10.46 and 8.18 and 7.73 and 7.75 and 7.91 | 16.41 and 15.72 and 6.63 and 6.46 and 5.99 and 5.93 | 18.62 (2×) and 17.28 and 17.05 and 16.78 and 16.42 | 27.04 and 27.03 and 26.28 and 26.11 and 26 and 25.46 | 56.8 and 57.52 and 52.1 and 50.99 and 52.47 and 50.98 | 77.41 and 78.78 and 71.45 and 74.76 and 72.12 and 73.47 | 84.8 and 85.13 and 83.98 and 84.02 and 82.9 and 83.28 | 91.5 and 92.21 and 96.4 and 96.06 and 98.84 and 94.11 | 95.21 and 97 and 100.13 and 98.68 and 100.43 and 97.42 | 95.94 and 97.66 and 99.42 and 99.81 and 100.11 and 99.03 |
| 89.4 ± 13.5 | CNCC#CCn1ccc2cccc(C#Cc3cccc(Cl)c3)c21 [DQ-16] | 24.42 and 42.17 | 44.41 and 66.92 | 87.71 and 67.55 | 103.26 and 71.7 and 101.95 and 107.11 and 107.49 and 103.62 | 107.4 and 104.96 and 100.44 and 100.8 and 99.65 and 99.6 | 105.07 and 103.28 and 102.18 and 95.06 and 104.24 and 100.65 | 112.46 and 113.5 and 115.83 and 115.26 and 112.62 and 114.01 | 106.69 and 106.05 and 103.52 and 103.99 and 105.16 and 107.1 | 101.16 and 99.6 and 102.96 and 104.58 and 100.87 and 100.34 | 95.95 and 99.26 and 100.97 and 100.31 and 101.14 and 100.94 | 95.83 and 94.95 and 90.34 and 101.71 and 99.53 and 101.3 | 95.82 and 93.84 and 98.4 and 100.56 and 99.28 and 103.27 |
| 292 ± 67 | OCc1ccc(OCc2ccccc2OCc2ccccc2)cc1 [DQ-10] | 43.38 and 44.41 and 45.92 and 45.13 and 45.42 and 45.93 | 45.74 and 44.58 and 47.45 and 47.39 and 47.18 and 50.77 | 56.05 and 53.52 and 55.98 and 54.18 and 54.88 and 57.9 | 76.31 and 75.72 and 105.39 and 105.73 and 101.62 and 104.74 | 93.17 and 93.5 and 97.58 and 97.31 and 105.67 and 98.13 | 105.05 and 103.17 and 107.45 and 104.86 and 105.64 and 102 | 97.45 and 97.17 and 101.99 and 103.63 and 102.59 and 100.01 | 100.27 and 101.99 and 106.56 and 102.96 and 101.68 and 100.85 | 96.05 and 88 and 94.05 and 95.4 and 97.95 and 97.13 | 93.18 and 94.04 and 98.08 and 97.4 and 96.62 and 95.63 | 97.94 and 95.96 and 97.5 and 99.04 and 99.69 and 102.43 | 97.84 and 98.7 and 100.06 and 101.42 and 100.78 and 96 |
